Activity calls are given as the source filed them. The rule behind the calls is not given here.
System: CCRIS mutagenicity, Ames/micronucleus/aberration tests
Assay: CCRIS mutagenicity studies

Measured: mutagenic call

C1COCCO1
inactive: Test System: AMES SALMONELLA TYPHIMURIUM, Strain/Indicator: TA1535, Metabolic Activation: RAT LIVER S-9, PHENOBARBITAL AND BETA-NAPHTHOFLAVONE (30%), Method: PREINCUBATION inactive; negative | Test System: AMES SALMONELLA TYPHIMURIUM, Strain/Indicator: TA1535, Metabolic Activation: RAT LIVER S-9, PHENOBARBITAL AND BETA-NAPHTHOFLAVONE, Method: GAS EXPOSURE inactive; negative | Test System: AMES SALMONELLA TYPHIMURIUM, Strain/Indicator: TA1537, Metabolic Activation: HAMSTER LIVER S-9, PHENOBARBITAL AND BETA-NAPHTHOFLAVONE (10%), Method: PREINCUBATION inactive; negative | Test System: AMES SALMONELLA TYPHIMURIUM, Strain/Indicator: TA1537, Metabolic Activation: HAMSTER LIVER S-9, PHENOBARBITAL AND BETA-NAPHTHOFLAVONE (30%), Method: PREINCUBATION inactive; negative | Test System: AMES SALMONELLA TYPHIMURIUM, Strain/Indicator: TA1537, Metabolic Activation: NONE, Method: GAS EXPOSURE inactive; negative | Test System: AMES SALMONELLA TYPHIMURIUM, Strain/Indicator: TA1537, Metabolic Activation: NONE, Method: PREINCUBATION inactive; negative | Test System: AMES SALMONELLA TYPHIMURIUM, Strain/Indicator: TA1537, Metabolic Activation: NONE, Method: STANDARD PLATE inactive; negative | Test System: AMES SALMONELLA TYPHIMURIUM, Strain/Indicator: TA1537, Metabolic Activation: RAT LIVER S-9, PHENOBARBITAL AND 5,6-BENZOFLAVONE, Method: PREINCUBATION inactive; negative | Test System: AMES SALMONELLA TYPHIMURIUM, Strain/Indicator: TA1537, Metabolic Activation: RAT LIVER S-9, PHENOBARBITAL AND 5,6-BENZOFLAVONE, Method: STANDARD PLATE inactive; negative | Test System: AMES SALMONELLA TYPHIMURIUM, Strain/Indicator: TA1537, Metabolic Activation: RAT LIVER S-9, PHENOBARBITAL AND BETA-NAPHTHOFLAVONE (10%), Method: PREINCUBATION inactive; negative | Test System: AMES SALMONELLA TYPHIMURIUM, Strain/Indicator: TA1537, Metabolic Activation: RAT LIVER S-9, PHENOBARBITAL AND BETA-NAPHTHOFLAVONE (30%), Method: PREINCUBATION inactive; negative | Test System: AMES SALMONELLA TYPHIMURIUM, Strain/Indicator: TA1537, Metabolic Activation: RAT LIVER S-9, PHENOBARBITAL AND BETA-NAPHTHOFLAVONE, Method: GAS EXPOSURE inactive; negative | Test System: E.COLI, Strain/Indicator: WP2 (PKM101), Metabolic Activation: NONE, Method: PREINCUBATION inactive; negative | Test System: E.COLI, Strain/Indicator: WP2 (PKM101), Metabolic Activation: NONE, Method: STANDARD PLATE inactive; negative | Test System: E.COLI, Strain/Indicator: WP2 (PKM101), Metabolic Activation: RAT LIVER S-9, PHENOBARBITAL AND 5,6-BENZOFLAVONE, Method: PREINCUBATION inactive; negative | Test System: E.COLI, Strain/Indicator: WP2 (PKM101), Metabolic Activation: RAT LIVER S-9, PHENOBARBITAL AND 5,6-BENZOFLAVONE, Method: STANDARD PLATE inactive; negative | Test System: E.COLI, Strain/Indicator: WP2 UVRA (PKM101), Metabolic Activation: NONE, Method: PREINCUBATION inactive; negative | Test System: E.COLI, Strain/Indicator: WP2 UVRA (PKM101), Metabolic Activation: NONE, Method: STANDARD PLATE inactive; negative | Test System: E.COLI, Strain/Indicator: WP2 UVRA (PKM101), Metabolic Activation: RAT LIVER S-9, PHENOBARBITAL AND 5,6-BENZOFLAVONE, Method: STANDARD PLATE inactive; negative | Test System: E.COLI, Strain/Indicator: WP2 UVRA(PKM101), Metabolic Activation: RAT LIVER S-9, PHENOBARBITAL AND 5,6-BENZOFLAVONE, Method: PREINCUBATION inactive; negative | Test System: E.COLI, Strain/Indicator: WP2UVRA/PKM101, Metabolic Activation: NONE, Method: GAS EXPOSURE inactive; negative | Test System: E.COLI, Strain/Indicator: WP2UVRA/PKM101, Metabolic Activation: RAT LIVER S-9, PHENOBARBITAL AND BETA-NAPHTHOFLAVONE, Method: GAS EXPOSURE inactive; negative | Test System: E.COLI, Strain/Indicator: WP2UVRA, Metabolic Activation: HAMSTER LIVER S-9, PHENOBARBITAL AND BETA-NAPHTHOFLAVONE (10%), Method: PREINCUBATION inactive; negative | Test System: E.COLI, Strain/Indicator: WP2UVRA, Metabolic Activation: HAMSTER LIVER S-9, PHENOBARBITAL AND BETA-NAPHTHOFLAVONE (30%), Method: PREINCUBATION inactive; negative | Test System: E.COLI, Strain/Indicator: WP2UVRA, Metabolic Activation: NONE, Method: GAS EXPOSURE inactive; negative | Test System: E.COLI, Strain/Indicator: WP2UVRA, Metabolic Activation: NONE, Method: PREINCUBATION inactive; negative | Test System: E.COLI, Strain/Indicator: WP2UVRA, Metabolic Activation: RAT LIVER S-9, PHENOBARBITAL AND BETA-NAPHTHOFLAVONE (10%), Method: PREINCUBATION inactive; negative | Test System: E.COLI, Strain/Indicator: WP2UVRA, Metabolic Activation: RAT LIVER S-9, PHENOBARBITAL AND BETA-NAPHTHOFLAVONE (30%), Method: PREINCUBATION inactive; negative | Test System: E.COLI, Strain/Indicator: WP2UVRA, Metabolic Activation: RAT LIVER S-9, PHENOBARBITAL AND BETA-NAPHTHOFLAVONE, Method: GAS EXPOSURE inactive; negative | Test System: MOUSE LYMPHOMA, Strain/Indicator: L5178Y (TK+/TK-), Metabolic Activation: NONE, Method: MICROTITER inactive; negative | Test System: MOUSE LYMPHOMA, Strain/Indicator: L5178Y (TK+/TK-), Metabolic Activation: NONE, Method: SUSPENSION/PLATE inactive; negative | Test System: MOUSE LYMPHOMA, Strain/Indicator: L5178Y (TK+/TK-), Metabolic Activation: RAT LIVER S-9, PHENOBARBITAL AND 5,6-BENZOFLAVONE (2 OR 5%), Method: MICROTITER inactive; negative | Test System: MOUSE LYMPHOMA, Strain/Indicator: L5178Y (TK+/TK-), Metabolic Activation: RAT, LIVER, S-9, AROCLOR 1254, Method: SUSPENSION/PLATE inactive; negative

Reference: PubChem BioAssay AID1259407 (Chemical Carcinogenesis Research Information System (CCRIS), 2018)
